Here are results for 15 compounds from article PMC9951290, “Comprehensive Structure–Activity Relationship Studies of Cepafungin Enabled by Biocatalytic C–H Oxidations” (ACS Central Science, 2023).

Where two headings read alike, the source gives them in different places.

Data set [1] is described as follows: Macrolactamisation of unprotected diamino acid: Lys epsilon-NH2 to vinylogous amino acid CO2H, DMTMMT (BF4 salt, 1.5 equiv), DIPEA (4 equiv); free alpha-NH2 and OH present. Particulars: the molecule shown is the open-chain precursor, 12-membered ring, DMF, 1.0 mM, 25.0 °C.
Data set [2] relates to RPMI 8226 cells. As to the kind of experiment: Cytotoxicity measurement (WST-1), RPMI 8226. Format: cell-based, human. The following applies: for EC50: Homo sapiens, RPMI 8226, 48 hours, WST-1, n = 3, read-out: Cytotoxicity EC50 (cell viability); for Potency in cytotoxicity screening relative to natural product 1: RPMI 8226, 30 and 100 nM compound concentration, n = 3, Figure 4B. The method, then: (§1) Cellular assays were performed on human multiple myeloma RPMI 8226 cells (Figure 4). First, relative inhibition of proteasome subunits β5 and β2 for all analogues and the natural product was measured at 30 nM compound concentration. Following incubation of the compounds in cell culture for 6 h, cells were lysed, and fluorogenic subunit-specific peptide substrates Suc-LLVY-AMC (β5) or Ac-RLR-AMC (β2) were incubated with the lysates; fluorescence readings provided relative proteasome activity levels in comparison with DMSO (Figure 4A). Next, cytotoxicity screening was performed at 30 and 100 nM concentrations for sufficient coverage of dynamic range (Figure 4B). […] Therefore, the improved cytotoxicity of phenyl cepafungin 50 likely results from a more pronounced loss of β5 function in RPMI 8226 cells. This drastic increase in proteasome inhibition may be due to π-stacking of the lipid tail phenyl ring with the β6 subunit residues Tyr106 and/or Tyr5. The β2 subunit-bound natural product has residues Tyr102 and Phe103 on the adjacent β3 subunit oriented further away from the terminal lipid methyl groups, and presumably would not facilitate π-stacking to the extent possible at the adjacent β6 subunit (see Figure 3 and Figure S4). […] These combined modifications were made in hopes that the effects of both substitutions would be additive. […] The presence of a Thr residue next to the cepafungin macrocycle appears to be favored over the ethyl side chain of desoxy-Thr analogue 44 as indicated by cytotoxicity and hydrogen-bonding seen in the cepafungin-bound crystal structure (Figures 3 and 4B).
AMC (β5) or Ac-RLR-AMC (β2). […]
Cytotoxicity Measurements
in DMSO) or DMSO and cultured for 48 hours. Toxicity was determined using the WST-1 assay
(Roche) according to the protocol of the manufacturer. (n = 3)
Figure S1. […]
A general note: Formazan colour is commonly taken as a measure of viable cells.

The subject of data set [3] is JeKo-1. As to the kind of experiment: Cytotoxicity measurement (WST-1), JeKo-1. The following applies: Homo sapiens, JeKo-1, 48 h, read-out: Cytotoxicity EC50.
Description: (§2) Cells of the indicated cell line origin were seeded in a 96-well plate (20,000 cells/well) in
(§3) cell culture media supplemented with indicated compounds at given concentrations (1,000x stock
(§4) in DMSO) or DMSO and cultured for 48 hours. Toxicity was determined using the WST-1 assay (Roche) according to the protocol of the manufacturer. (n = 3)
Data set [4] has as its system MM.1S. The following applies: Cell line: MM.1S; Figure 2; cited from earlier work.
In data set [5] the test system is Mino. In words: Cytotoxicity measurement (WST-1), Mino. Particulars: Homo sapiens, 48 h, read-out: Cytotoxicity EC50.
Description: as §2, §3, §4
Data set [6] relates to HBL2. As to the kind of experiment: Cytotoxicity measurement (WST-1), HBL2. Particulars: Homo sapiens, HBL2, 48 h, read-out: Cytotoxicity EC50.
Description: as §2, §3, §4
The test system of data set [7] is Mino BtzR. The following applies: Cell line: Mino BtzR; Figure 2; cited from earlier work.
The subject of data set [8] is U266. In words: Cytotoxicity measurement (WST-1), U266. Particulars: Homo sapiens, U-266, 48 h, read-out: Cytotoxicity EC50.
Description: as §2, §3, §4
Data set [9] relates to H929. In words: Cytotoxicity measurement (WST-1), H929. Particulars: Homo sapiens, NCI-H929, 48 h, read-out: Cytotoxicity EC50.
Description: as §2, §3, §4
Data set [10] has as its system RPMI 8226 cells. As to the kind of experiment: Cytotoxicity measurement (WST-1), RPMI 8226. In kind it is cell-based. Particulars: Homo sapiens, 24 h; RPMI 8226, used as treatment concentration for proteomics.
Data set [11] has as its system RPMI 8226 cells. As to the kind of experiment: Global proteomics analysis via LC-MS/MS of RPMI 8226 cells treated with BTZ or 50 (Table S5). In kind it is cell-based, human.
Description: Finally, we evaluated the changes in global protein expression following treatment of RPMI 8226 cells with either BTZ or 50. […] Following treatment, cells were collected via centrifugation, and protein lysates were digested with trypsin and analyzed using LC-MS/MS.
Global proteomics analysis via LC-MS/MS.
RPMI 8226 cells were seeded in a 6-well plate (1,000,000 cells/well) in cell culture media supplemented with DMSO, BTZ (2.5 nM, 1000x stock in DMSO), or 50 (3 nM, 1000x stock in DMSO) for 14 h. Cells were centrifuged (3,000 x g 5 min 4°C) and washed twice with PBS. Cell pellets were resuspended in PBS and protein concentration was determined using the Bradford assay (Bio-Rad). Urea (9 M in 100 mM NH4HCO3 pH 8) was added to a final concentration of 6 M to 30 µg lysate (15 µL PBS). […] Peptides were resuspended in water with 0.1 % FA and analyzed using EASY-nLC 1200 nano-UHPLC coupled to Q Exactive HF-X Quadrupole-Orbitrap mass spectrometer (Thermo Scientific). […]
The MS data were analyzed with MaxQuant (V2.0.3.0) and searched against the human proteome (Uniprot) and a common list of contaminants (included in MaxQuant). […] The minimum peptide length was set to 6 amino acids and peptide re-quantification and “match between runs” was enabled. […]
Data set [12] has as its system Mino. The following applies: Cell line: Mino; Figure 2; cited from earlier work.
In data set [13] the test system is RPMI 8226 cells. Particulars: ∼3700 proteins quantified, 19 in common; cited from earlier work.
In data set [14] the test system is MM.1S BtzR. The following applies: Cell line: MM.1S BtzR; Figure 2; cited from earlier work.
Data set [15] deals with T1, proteasome subunit β5 (Homo sapiens, UniProt P28074).
T1 construct: Following incubation of the compounds in cell culture for 6 h, cells were lysed; endogenous in cells; host or cells: RPMI 8226 (human multiple myeloma)
The following applies: in situ in RPMI 8226 cells; preliminary analogue series, Figure 2; cited from earlier work.

Data set [16] concerns the target T1, proteasome subunit β5. As to the kind of experiment: In situ β5 proteasome activity assay (Suc-LLVY-AMC) in RPMI 8226 cells. In kind it is cell-based.
Description: A preliminary series of analogues, including the natural product glidobactin A (2), were synthesized by largely the same route (Scheme 2B, Figure 2).[36] Desoxycepafungin (38) was synthesized from Boc-Lys(Boc)-OH by peptide couplings/macrocyclization to assess the role of the macrocycle hydroxylation in 1 toward proteasome inhibition. The saturated cepafungin analogue 39 was designed to address the possible role of rigidity in the tail fragment induced by the diene seen in many natural cepafungins and glidobactins. An analogue bearing unsaturation at its macrocyclic lysine was envisioned to provide a head-to-head comparison between the cepafungin and syringolin macrocyclic core. […] Proteasome subunit β5 IC50 values were determined in situ in RPMI 8226 cells. In close agreement with prior measurement of β5 IC50 for natural 1 and 2 in purified yeast proteasome,[12] in our hands the additional branching methyl in 1 indeed leads to ca. 5-fold improved IC50 compared to 2 in RPMI 8226 cells. […] Likewise, saturation of the fatty acid fragment in 39 causes ca. 14-fold decrease in β5 inhibition. This preliminary series of analogues highlighted that the macrocyclic hydroxylation, fatty acid unsaturation, and terminal lipid functionality are critical for potent proteasome inhibitory activity.
as §1, with “and 4B). […]” for “and 4B).”
Mammalian cell culture and lysate preparation
Mammalian cells were maintained in RPMI-1640 media. All media were supplemented with 10% fetal bovine serum (FBS, Life Technologies Cat# 10437028), non-essential amino acids (Sigma-Aldrich Cat# M7145) and penicillin/streptomycin (Sigma-Aldrich Cat# P4333). Cells were grown at 37 °C under 5% CO2 atmosphere. […] Cells were lysed by needle sonication to obtain cell lysates and protein concentration was determined using the […]
fluorescence was read at A360ex/A460em. […]

On to `CC(C)[C@@H](/C=C/C(=O)O)NC(=O)[C@@H](N)C[C@@H](O)CCN`, for which the ring closure, yield by NMR in data set [1] (36.0 h) was determined as 47%.

On to `C[C@@H](/C=C/C(=O)O)NC(=O)[C@@H](N)CC(=O)CCN`, for which the ring closure, yield by NMR in [1] (36.0 h) turned out to be 51%.

For `C[C@@H](/C=C/C(=O)O)NC(=O)[C@@H](N)C[C@@H](O)CCN`, the ring closure, yield by NMR in [1] was 63%.

In the case of `C[C@@H](/C=C/C(=O)O)NC(=O)[C@@H](N)C[C@H](O)CCN`, the ring closure, yield by NMR in data set [1] (36.0 h) was 59%.

As to `C[C@@H](/C=C/C(=O)O)NC(=O)[C@@H](N)[C@@H](O)CCCN`, the ring closure, yield by NMR in data set [1] (36.0 h) was found to be 47%.

For `CC(C)[C@H]1/C=C/C(=O)NCC[C@H](O)C[C@H](NC(=O)[C@@H](NC(=O)/C=C/C=C/CCCCCc2ccccc2)[C@@H](C)O)C(=O)N1` [S39], the half-maximal effective concentration (EC50) (in general, the concentration giving half of the maximal effect) in [2] was 4.5 nM.

`CC(C)C[C@H](NC(=O)[C@H](Cc1ccccc1)NC(=O)c1cnccn1)B(O)O` [bortezomib]: the 50% effective concentration (EC50) in data set [3] is 7 ± 0.5 nM; in data set [4], 2.3 ± 0.03 nM; in data set [5], 7.4 ± 0.3 nM; in [6], 2.5 ± 0.4 nM; in [7], 23 ± 1.1 nM; in [8], 3.1 ± 0.1 nM. In addition, the half-maximal effective concentration (EC50) in data set [9] is 1.5 ± 0.2 nM; in data set [10], 2.5 nM; in data set [12] it was 10 ± 0.4 nM; in data set [2] it was 2.2 ± 0.1 nM; in data set [14], 28 ± 0.6 nM. Also, the “overlap of upregulated proteins commonly affected by BTZ and 50” value in data set [11] (17 common proteins) is 59%. Moreover, the “number of proteins with statistically significant increase in expression” value in data set [11] (RPMI 8226, 14 h, 2.5 nM BTZ or 3 nM 50 vs DMSO, out of 4080 quantified, FDR 5%, S0 0.1) is on record as 29 proteins. Further, the “number of proteins upregulated compared to DMSO control” value in data set [13] is 25 proteins.

For the compound `CCCCCCC/C=C/C=C/C(=O)N[C@H](C(=O)N[C@H]1C[C@@H](O)CCNC(=O)/C=C/[C@H](C)NC1=O)[C@@H](C)O` [compound 2, glidobactin A], in [15], the IC50 (commonly the point on the concentration scale where inhibition reaches its midpoint) was 77 ± 5 nM.

Consider `CCCCCCCCCCCCNC(=O)N[C@H](C(=O)N[C@H]1/C=C/CCNC(=O)/C=C/[C@H](C)NC1=O)C(C)C` [compound 37, TIR-199], for which the EC50 in data set [4] is 48 ± 8.7 nM; in data set [7], 130 ± 2 nM; in [12] it was 64 ± 2.1 nM; in [14], 81 ± 5.8 nM.

Consider `CC(C)CCCCC/C=C/C=C/C(=O)N[C@H](C(=O)N[C@H]1CCCCNC(=O)/C=C/[C@H](C)NC1=O)[C@@H](C)O` [compound 38, Desoxycepafungin], for which the “fold higher IC50 than 1” value in data set [16] (β5, RPMI 8226 cells) was “ca. 11 fold”. In addition, in data set [15], the IC50 was 184 ± 29 nM.

As to `CC(C)CCCCCCCCCC(=O)NC(C(=O)NC1CC(O)CCNC(=O)C=CC(C)NC1=O)C(C)O` (stereo not drawn) [compound 39], in [16] (39 versus 1, RPMI 8226 cells), the “fold decrease in β5 inhibition on saturation of the fatty acid fragment” value was “ca. 14 fold”. In addition, the concentration for half-maximal inhibition (IC50) in data set [15] was 219 ± 11 nM.

Turning to `CC(C)CCCCC/C=C/C=C/C(=O)N[C@H](C(=O)N[C@H]1C[C@H](O)CCNC(=O)/C=C/[C@H](C)NC1=O)[C@@H](C)O` [compound 40, epi-4-OH cepafungin], the “Potency in cytotoxicity screening relative to natural product 1” value in data set [2] was “nearly inactive at both concentrations”.

For the compound `CC(C)CCCCC/C=C/C=C/C(=O)N[C@H](C(=O)N[C@@H]1C(=O)N[C@@H](C)/C=C/C(=O)NCCC[C@@H]1O)[C@@H](C)O` [compound 41, 3-OH cepafungin], the “Potency in cytotoxicity screening relative to natural product 1” value in data set [2] was “nearly inactive at both concentrations”.

In the case of `CC(C)CCCCC/C=C/C=C/C(=O)N[C@H](C(=O)N[C@H]1CC(=O)CCNC(=O)/C=C/[C@H](C)NC1=O)[C@@H](C)O` [compound 42, keto cepafungin], the “Potency in cytotoxicity screening relative to natural product 1” value in data set [2] is reported as “potency approaching that of the natural product”.

As to `CC(C)CCCCC/C=C/C=C/C(=O)N[C@H](C(=O)N[C@H]1C[C@@H](O)CCNC(=O)/C=C/[C@H](C(C)C)NC1=O)[C@@H](C)O` [compound 43, valinyl cepafungin], the “Potency in cytotoxicity screening relative to natural product 1” value in data set [2] is reported as “more potent than the parent natural product 1”.
